Results taken from patent publication US8496964B2, “Controlled release micro-capsule for osteogenic action” (Council of Scientific & Industrial Research, priority 2009, dated 2013).

What was measured:
[1] = In vitro Kaempferol release in SGF and SIF; assay type: physicochemical; conditions: SIF compared with SGF
Description: For in-vitro release study the ultra sink condition was maintained. Briefly, Dried pure Kaempferol dispersed in PBS, the Kaempferol-loaded CaCO3 MP (CaCO3-Kaempferol) and the encapsulated Kaempferol-loaded microcapsules suspension in same concentration were taken in centrifuge tube in one ml phosphate buffer saline (PBS). Two different pH solutions were used as the release medium [a simulated gastric fluid (SGF) (pH 1.2), prepared by diluting a concentrated HCl solution] and [a simulated intestinal fluid (SIF) (pH 7.4), prepared with 0.02M phosphate buffer saline]. The sample was maintained under horizontal agitation at 37° C. in vortex. At different time intervals the dispersion was centrifuged at 10,000 rpm for 5 min. and the supernatant was assayed for Kaempferol using RP-HPLC method at 370 nm against reagent blank. After each sampling the medium was replaced with fresh buffer. It was also ensured that no extra tiny particles are left in the supernatant.

[2] = in vivo; conditions: rat, po, 1 mg/kg
Procedure: Kaempferol (free; 1 mg/kg) in 20% ethanol was orally administered by gavage. Following administration, the rats were sacrificed at 0.25, 0.5, 1.0, 1.5, 2.0, 2.5, 3.0, 4.0, 6.0, and 24 h to obtain serum and bone marrow. After protein precipitation, concentration of Kaempferol in serum and bone marrow was determined by HPLC. […] Similarly formulated (LbL based assembly) Kaempferol (equivalent to 1 mg/kg of free Kaempferol) was administered orally using gavage. Following administration, the rats were sacrificed at 0.25, 0.5, 1.0, 1.5, 2.0, 2.5, 3.0, 4.0, 6.0, and 24 h to obtain serum and bone marrow. After protein precipitation concentration of Kaempferol in serum and bone marrow was determined by HPLC. The mean serum pharmacokinetics profile (for the three rats at each time point) of kaempferol on administration of formulation was calculated over 24 h. Rapid absorption of Kaempferol is evident, which appeared to peak after 1 h and can be detected for as long as 24 h post administration.

[3] = system: ovariectomized (OVx) rats; experiment: Bone mineral density (BMD) by DEXA after one month of oral administration; assay type: in vivo, female Sprague Dawley rats
Procedure: (§1) The study was conducted in accordance with current legislation on animal experiments [Institutional Animal Ethical Committee (IAEC)] at C.D.R.I. Forty female Sprague Dawley rats weighing 200 g were taken for the study (n=10/group). Thirty rats were bilaterally ovariectomized (OVx). The other 10 rats were exposed to a sham surgical procedure. All rats were individually housed at 21° C., in 12-h/12-h light-dark cycles. Normal chow diet and water was provided ad libitum. The rats were left for 4 weeks to develop osteopenia. The animals were divided into 4 groups Sham, Ovaticetomized group (Ovx), Ovx+Kaempferol (Ovaticetomized group treated with Kaempferol) and Ovx+F (Ovaticetomized group treated with formulation of Kaempferol). Animals were treated for one month then sacrificed and BMD was determined.
BMD was determined by DEXA (Dual Energy X-ray Absorptiometry) using a Hologic QDR 4500A x-ray densitometer with high-resolution small animal software. BMD of the excised bones (left femurs, tibia, and lumbar vertebrae) were studied at the end of experiment. Left femurs were placed on their posterior surfaces, and BMD of the sub-regions was assessed. Distal and proximal regions corresponded to the cancellous bone and central to the cortical bone. Results are given in g/cm^2 as represented in FIG. 5.

[4] = system: ovariectomized (OVx) rats; experiment: Trabecular bone strength, Bone Strength Tester TK-252C; assay type: in vivo, female Sprague Dawley rats; conditions: one month treatment
Procedure: as §1
This test predominantly measured trabecular bone strength using a Bone Strength Tester TK-252C (Muromachi Kikai Co. Ltd., Tokyo, Japan). The bone strength for all the groups was measured as reported in this invention.

[5] = system: OVx rats; conditions: cited from earlier work
[6] = one month oral treatment, excised bone
[7] = compared with OVx group treated with vehicle

O=c1c(O)c(-c2ccc(O)cc2)oc2cc(O)cc(O)c12 [Kaempferol]
Kaempferol saturation solubility [1]: much higher | AUC(0-t) [2]: 1420 ng·h/mL | Tmax [2]: 30 min | time after which bone marrow level went below the detection limit [2]: 2.5 h | time after which serum level went below the detection limit [2]: 6 h | time of Cmax in bone marrow [2]: 90 min | Cmax ([2]; Cmax of Kaempferol in bone marrow): 194 ng/mL | Cmax ([2]; Cmax of Kaempferol in serum): 583 ± 229 ng/mL | Bone Mineral Density, Femur diaphysis [3, 6]: 0.2658 ± 0.01 g/cm^2 | Bone Mineral Density, Femur global [3, 6]: 0.262 ± 0.01 g/cm^2 | Bone Mineral Density, Tibia Head [3, 6]: 0.2835 ± 0.015 g/cm^2 | Bone Mineral Density, Vertebrae global [3, 6]: 0.1847 ± 0.013 g/cm^2 | trabecular BMD over OVx+vehicle group ([3]; one month treatment): significantly higher | bone biomechanical strength over OVx+vehicle group [4]: significantly higher | Bone strength ([4]; trabecular bone): 209.4 ± 21.52 N/mm | bone sparing action [5]: exerts bone sparing action | estrogen agonistic effect at the uterine level [5]: no estrogen agonistic effect | adipocyte differentiation from bone marrow cells [5, 7]: inhibition | osteoprogenitor cells [5, 7]: increase
